{"source": "ChEMBL document CHEMBL1201862", "about": "“PubChem BioAssay data set” (2004)", "test_in_all_cases": "DTP human tumour cell line panel, 48 h", "key": {"786-0": {"system": "786-0"}, "A498": {"system": "A498"}, "A549": {"system": "A549"}, "ACHN": {"system": "ACHN"}, "BT-549": {"system": "BT-549"}, "CAKI-1": {"system": "CAKI-1"}, "CCRF-CEM": {"system": "CCRF-CEM"}, "COLO 205": {"system": "COLO 205"}, "DU-145": {"system": "DU-145"}, "EKVX": {"system": "EKVX"}, "HCC 2998": {"system": "HCC 2998"}, "HCT-116": {"system": "HCT-116"}, "HCT-15": {"system": "HCT-15"}, "HL-60": {"system": "HL-60"}, "HOP-62": {"system": "HOP-62"}, "HOP-92": {"system": "HOP-92"}, "HT-29": {"system": "HT-29"}, "Hs-578T": {"system": "Hs-578T"}, "IGROV-1": {"system": "IGROV-1"}, "K562": {"system": "K562"}, "KM12": {"system": "KM12"}, "LOX IMVI": {"system": "LOX IMVI"}, "M14": {"system": "M14"}, "MCF7": {"system": "MCF7"}, "MDA-MB-231": {"system": "MDA-MB-231"}, "MDA-MB-435": {"system": "MDA-MB-435"}, "MDA-N": {"system": "MDA-N"}, "MOLT-4": {"system": "MOLT-4"}, "Malme-3M": {"system": "Malme-3M"}, "NCI-H226": {"system": "NCI-H226"}, "NCI-H23": {"system": "NCI-H23"}, "NCI-H460": {"system": "NCI-H460"}, "NCI-H522": {"system": "NCI-H522"}, "NCI/ADR-RES": {"system": "NCI/ADR-RES"}, "OVCAR-3": {"system": "OVCAR-3"}, "OVCAR-4": {"system": "OVCAR-4"}, "OVCAR-5": {"system": "OVCAR-5"}, "OVCAR-8": {"system": "OVCAR-8"}, "PC-3": {"system": "PC-3"}, "RPMI-8226": {"system": "RPMI-8226"}, "RXF 393": {"system": "RXF 393"}, "SF-268": {"system": "SF-268"}, "SF-295": {"system": "SF-295"}, "SF-539": {"system": "SF-539"}, "SK-MEL-28": {"system": "SK-MEL-28"}, "SK-MEL-2": {"system": "SK-MEL-2"}, "SK-MEL-5": {"system": "SK-MEL-5"}, "SK-OV-3": {"system": "SK-OV-3"}, "SN12C": {"system": "SN12C"}, "SNB-19": {"system": "SNB-19"}, "SNB-75": {"system": "SNB-75"}, "SR": {"system": "SR"}, "SW-620": {"system": "SW-620"}, "T47D": {"system": "T47D"}, "TK-10": {"system": "TK-10"}, "U-251": {"system": "U-251"}, "UACC-257": {"system": "UACC-257"}, "UACC-62": {"system": "UACC-62"}, "UO-31": {"system": "UO-31"}}, "note": "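Growth conditions: 96-well plates. Treatment: test compound, 48 hours, 5 concentrations. Analysis: linear interpolation between bracketing concentrations; unreached endpoints set to highest concentration. At the GI50, growth is halved.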 Activity calls are given as the source filed them. No stated cut-off is given here; in the data, active = GI50 up to about 1.1 µM and inactive = higher.", "data": [{"smiles": "CC(C)NC(=O)OCc1c(COC(=O)NC(C)C)c(-c2ccc[n+](COC(=O)C(C)C)c2)n2c1CCC2", "values": [{"measurement": "GI50", "setting": "786-0", "value": "34.6 µM (inactive)"}, {"measurement": "GI50", "setting": "A498", "value": "23.1 µM (inactive)"}, {"measurement": "GI50", "setting": "A549", "value": "> 91.4 µM (inactive)"}, {"measurement": "GI50", "setting": "ACHN", "value": "29.1 µM (inactive)"}, {"measurement": "GI50", "setting": "BT-549", "value": "81.1 µM (inactive)"}, {"measurement": "GI50", "setting": "CAKI-1", "value": "17.3 µM (inactive)"}, {"measurement": "GI50", "setting": "CCRF-CEM", "value": "17.2 µM (inactive)"}, {"measurement": "GI50", "setting": "COLO 205", "value": "> 72.3 µM (inactive)"}, {"measurement": "GI50", "setting": "DU-145", "value": "65.8 µM (inactive)"}, {"measurement": "GI50", "setting": "EKVX", "value": "> 100 µM (inactive)"}, {"measurement": "GI50", "setting": "HCC 2998", "value": "> 100 µM (inactive)"}, {"measurement": "GI50", "setting": "HCT-116", "value": "54.7 µM (inactive)"}, {"measurement": "GI50", "setting": "HCT-15", "value": "> 71.9", "unit": "µM"}, {"measurement": "GI50", "setting": "HL-60", "value": "16 µM (inactive)"}, {"measurement": "GI50", "setting": "HOP-62", "value": "> 63.5 µM (inactive)"}, {"measurement": "GI50", "setting": "HOP-92", "value": "44.1 µM (inactive)"}, {"measurement": "GI50", "setting": "HT-29", "value": "73.8 µM (inactive)"}, {"measurement": "GI50", "setting": "Hs-578T", "value": "> 100 µM (inactive)"}, {"measurement": "GI50", "setting": "IGROV-1", "value": "> 67.6 µM (inactive)"}, {"measurement": "GI50", "setting": "K562", "value": "56.6 µM (inactive)"}, {"measurement": "GI50", "setting": "KM12", "value": "> 100 µM (inactive)"}, {"measurement": "GI50", "setting": "LOX IMVI", "value": "37.7 µM (inactive)"}, {"measurement": "GI50", "setting": "M14", "value": "61.5 µM (inactive)"}, {"measurement": "GI50", "setting": "MCF7", "value": "55.6 µM (inactive)"}, {"measurement": "GI50", "setting": "MDA-MB-231", "value": "> 100 µM (inactive)"}, {"measurement": "GI50", "setting": "MDA-MB-435", "value": "> 100 µM (inactive)"}, {"measurement": "GI50", "setting": "MDA-N", "value": "> 100 µM (inactive)"}, {"measurement": "GI50", "setting": "MOLT-4", "value": "13.6 µM (inactive)"}, {"measurement": "GI50", "setting": "Malme-3M", "value": "> 63.5 µM (inactive)"}, {"measurement": "GI50", "setting": "NCI-H226", "value": "> 100 µM (inactive)"}, {"measurement": "GI50", "setting": "NCI-H23", "value": "33.5 µM (inactive)"}, {"measurement": "GI50", "setting": "NCI-H460", "value": "21.6 µM (inactive)"}, {"measurement": "GI50", "setting": "NCI-H522", "value": "34.5 µM (inactive)"}, {"measurement": "GI50", "setting": "NCI/ADR-RES", "value": "63.7 µM (inactive)"}, {"measurement": "GI50", "setting": "OVCAR-3", "value": "> 67.8 µM (inactive)"}, {"measurement": "GI50", "setting": "OVCAR-4", "value": "> 87.3 µM (inactive)"}, {"measurement": "GI50", "setting": "OVCAR-5", "value": "> 100 µM (inactive)"}, {"measurement": "GI50", "setting": "OVCAR-8", "value": "> 72.8 µM (inactive)"}, {"measurement": "GI50", "setting": "PC-3", "value": "59.3 µM (inactive)"}, {"measurement": "GI50", "setting": "RPMI-8226", "value": "55.2 µM (inactive)"}, {"measurement": "GI50", "setting": "RXF 393", "value": "42.4 µM (inactive)"}, {"measurement": "GI50", "setting": "SF-268", "value": "52.4 µM (inactive)"}, {"measurement": "GI50", "setting": "SF-295", "value": "68.9 µM (inactive)"}, {"measurement": "GI50", "setting": "SF-539", "value": "31.8 µM (inactive)"}, {"measurement": "GI50", "setting": "SK-MEL-28", "value": "> 100 µM (inactive)"}, {"measurement": "GI50", "setting": "SK-MEL-2", "value": "> 83.4 µM (inactive)"}, {"measurement": "GI50", "setting": "SK-MEL-5", "value": "> 94.4 µM (inactive)"}, {"measurement": "GI50", "setting": "SK-OV-3", "value": "> 100 µM (inactive)"}, {"measurement": "GI50", "setting": "SN12C", "value": "37.5 µM (inactive)"}, {"measurement": "GI50", "setting": "SNB-19", "value": "> 100 µM (inactive)"}, {"measurement": "GI50", "setting": "SNB-75", "value": "52.1 µM (inactive)"}, {"measurement": "GI50", "setting": "SR", "value": "8.53 µM (inactive)"}, {"measurement": "GI50", "setting": "SW-620", "value": "55.3 µM (inactive)"}, {"measurement": "GI50", "setting": "T47D", "value": "> 81.3 µM (inactive)"}, {"measurement": "GI50", "setting": "TK-10", "value": "> 91.4 µM (inactive)"}, {"measurement": "GI50", "setting": "U-251", "value": "> 75.5 µM (inactive)"}, {"measurement": "GI50", "setting": "UACC-257", "value": "> 100 µM (inactive)"}, {"measurement": "GI50", "setting": "UACC-62", "value": "26.9 µM (inactive)"}, {"measurement": "GI50", "setting": "UO-31", "value": "52.4 µM (inactive)"}]}]}
